Measurements published in US12421211B2, “Heterocyclic compounds” (Hoffmann-La Roche Inc., priority 2021, dated 2025).
Structures can show the parent of a compound that is named as a salt.

Tested on: Acinetobacter baumannii ATCC17961
Experiment: Antimicrobial susceptibility testing: 90% growth inhibitory concentration (IC90) determination
Assay type: cell-based
Conditions: 90% growth inhibitory concentration, Acinetobacter baumannii ATCC17961, Iso-Sensitest broth, OD 600 nm over 16 h; read-out: ATCC 17961 IC90
Procedure, shortened: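 A. baumannii ATCC17961 at ~5×10^5 CFU/ml in Iso-Sensitest broth exposed to 10-point twofold dilutions (e.g. 50–0.097 μM final), 35±2° C. OD600 read every 20 minutes over 16h; IC50 and IC90 derived from inhibition during logarithmic growth.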

Compound	IC90 [nM]
cis 2-[1-(azetidin-3-ylmethyl)-4-[4-[2-chloro-4-[[5-[3-fluoro-4-[1-(2-methoxyethyl)-3-methyl-pyrazol-4-yl]phenyl]-1-methyl-imidazole-2-carbonyl]amino]benzoyl]piperazine-1-carbonyl]piperidin-1-ium-1-yl]acetic acid; 2,2,2-trifluoroacetate [Example O7]	140

Same assay, conditions: Acinetobacter baumannii, ATCC17961, 16 h, 90% growth inhibitory concentration, Acinetobacter baumannii ATCC17961, Iso-Sensitest broth, OD 600 nm over 16 h; read-out: ATCC 17961 IC90

Compound	IC90 [nM]
COCCn1ncc(-c2ccc(-c3cnc(C(=O)Nc4ccc(C(=O)N5CCN(C(=O)[C@@H]6C[C@@H](O)C[N+]6(C)C)CC5)c(Cl)c4)n3C)c(F)c2F)c1C [Example F15, N-[3-chloro-4-[4-[(2S,4R)-4-hydroxy-1,1-dimethyl-pyrrolidin-1-ium-2-carbonyl]piperazine-1-carbonyl]phenyl]-5-[2,3-difluoro-4-[1-(2-methoxyethyl)-5-methyl-pyrazol-4-yl]phenyl]-1-methyl-imidazole-2-carboxamide; 2,2,2-trifluoroacetate]	55
Cc1nn(CC(=O)Nc2ccccc2F)cc1-c1ccc(-c2cnc(C(=O)Nc3ccc(C(=O)N4CCN(C(=O)C5CC[N+](C)(C)CC5)CC4)c(Cl)c3)n2C)c(F)c1F [Example G6, N-[3-chloro-4-[4-(1,1-dimethylpiperidin-1-ium-4-carbonyl)piperazine-1-carbonyl]phenyl]-5-[2,3-difluoro-4-[1-[2-(2-fluoroanilino)-2-oxo-ethyl]-3-methyl-pyrazol-4-yl]phenyl]-1-methyl-imidazole-2-carboxamide; formate]	140
Cc1nn(CC(=O)Nc2cccc(F)c2)cc1-c1ccc(-c2cnc(C(=O)Nc3ccc(C(=O)N4CCN(C(=O)C5CC[N+](C)(C)CC5)CC4)c(Cl)c3)n2C)c(F)c1F [Example G13, N-[3-chloro-4-[4-(1,1-dimethylpiperidin-1-ium-4-carbonyl)piperazine-1-carbonyl]phenyl]-5-[2,3-difluoro-4-[1-[2-(3-fluoroanilino)-2-oxo-ethyl]-3-methyl-pyrazol-4-yl]phenyl]-1-methyl-imidazole-2-carboxamide; chloride]	130
Cc1nn(-c2ccc(N)cn2)cc1-c1ccc(-c2cnc(C(=O)Nc3ccc(C(=O)N4CCN(C(=O)C5CC[N+](C)(C)CC5)CC4)c(Cl)c3)n2C)c(F)c1F [Example F40, 5-[4-[1-(5-amino-2-pyridyl)-3-methyl-pyrazol-4-yl]-2,3-difluoro-phenyl]-N-[3-chloro-4-[4-(1,1-dimethylpiperidin-1-ium-4-carbonyl)piperazine-1-carbonyl]phenyl]-1-methyl-imidazole-2-carboxamide; chloride]	610
COCCn1ncc(-c2ccc(-c3cnc(C(=O)Nc4ccc(C(=O)N5CCN(C(=O)C6CC[N+](CC(=O)O)(CC7CNC7)CC6)CC5)c(Cl)c4)n3C)c(Cl)c2F)c1C (stereo not shown) [Example B37, 2-[1-(azetidin-3-ylmethyl)-4-[4-[2-chloro-4-[[5-[2-chloro-3-fluoro-4-[1-(2-methoxyethyl)-5-methyl-pyrazol-4-yl]phenyl]-1-methyl-imidazole-2-carbonyl]amino]benzoyl]piperazine-1-carbonyl]piperidin-1-ium-1-yl]acetic acid; formate]	200
Cc1n[nH]cc1-c1ccc(-c2cnc(C(=O)Nc3ccc(C(=O)N4CCN(C(=O)CCC[N+](CC(=O)O)(CC5CNC5)CC5CNC5)CC4)c(Cl)c3)n2C)c(F)c1F [Example D42, bis(azetidin-3-ylmethyl)-(carboxymethyl)-[4-[4-[2-chloro-4-[[5-[2,3-difluoro-4-(3-methyl-1H-pyrazol-4-yl)phenyl]-1-methyl-imidazole-2-carbonyl]amino]benzoyl]piperazin-1-yl]-4-oxo-butyl]ammonium; formic acid; formate]	60
COCCn1cc(-c2ccc(-c3cnc(C(=O)Nc4ccc(C(=O)N5CCN(C(=O)CC6(O)CC[N+](C)(C)CC6)CC5)c(Cl)c4)n3C)c(F)c2F)c(C)n1 [Example D17, N-[3-chloro-4-[4-[2-(4-hydroxy-1,1-dimethyl-piperidin-1-ium-4-yl)acetyl]piperazine-1-carbonyl]phenyl]-5-[2,3-difluoro-4-[1-(2-methoxyethyl)-3-methyl-pyrazol-4-yl]phenyl]-1-methyl-imidazole-2-carboxamide; formate]	260
COCCn1ncc(-c2ccc(-c3cnc(C(=O)Nc4ccc(C(=O)N5CCC(CN6CC[N+](C)(C)CC6=O)CC5)c(Cl)c4)n3C)c(F)c2F)c1C [Example D14, N-[3-chloro-4-[4-[(4,4-dimethyl-2-oxo-piperazin-4-ium-1-yl)methyl]piperidine-1-carbonyl]phenyl]-5-[2,3-difluoro-4-[1-(2-methoxyethyl)-5-methyl-pyrazol-4-yl]phenyl]-1-methyl-imidazole-2-carboxamide; 2,2,2-trifluoroacetate]	110
COCCn1ncc(-c2ccc(-c3cnc(C(=O)Nc4ccc(C(=O)N5CCC(C(=O)N6CC[N+](C)(CC(=O)O)CC6)CC5)c(Cl)c4)n3C)c(F)c2F)c1C [Example B13, 2-[4-[1-[2-chloro-4-[[5-[2,3-difluoro-4-[1-(2-methoxyethyl)-5-methyl-pyrazol-4-yl]phenyl]-1-methyl-imidazole-2-carbonyl]amino]benzoyl]piperidine-4-carbonyl]-1-methyl-piperazin-1-ium-l-yl]acetic acid; 2,2,2-trifluoroacetate]	810
COCCn1ncc(-c2ccc(-c3cnc(C(=O)Nc4ccc(C(=O)N5CCN(C(=O)C6CC[N+](C)(C)CC6)CC5)c(Cl)c4)n3C)c(Cl)c2)c1C [Example F22, N-[3-chloro-4-[4-(1,1-dimethylpiperidin-1-ium-4-carbonyl)piperazine-1-carbonyl]phenyl]-5-[2-chloro-4-[1-(2-methoxyethyl)-5-methyl-pyrazol-4-yl]phenyl]-1-methyl-imidazole-2-carboxamide; formate]	170
Cn1c(-c2ccc(-c3cn[nH]c3)cc2)cnc1C(=O)Nc1ccc(C(=O)N2CCN(C(=O)C3CCNCC3)CC2)c(Cl)c1 [Example E23, N-[3-chloro-4-[4-(piperidine-4-carbonyl)piperazine-1-carbonyl]phenyl]-1-methyl-5-[4-(1H-pyrazol-4-yl)phenyl] imidazole-2-carboxamide]	140
Cn1c(-c2ccc(-c3cn(CCOC(F)F)nc3C(F)(F)F)c(F)c2F)cnc1C(=O)Nc1ccc(C(=O)N2CCN(C(=O)C3CC[N+](C)(C)CC3)CC2)c(Cl)c1 [Example F6, N-[3-chloro-4-[4-(1,1-dimethylpiperidin-1-ium-4-carbonyl)piperazine-1-carbonyl]phenyl]-5-[4-[1-[2-(difluoromethoxy)ethyl]-3-(trifluoro-methyl)pyrazol-4-yl]-2,3-difluoro-phenyl]-1-methyl-imidazole-2-carboxamide; formate]	570
Cc1nn(-c2cn[nH]c2)cc1-c1ccc(-c2cnc(C(=O)Nc3ccc(C(=O)N4CCN(C(=O)C5CC[N+](C)(C)CC5)CC4)c(Cl)c3)n2C)c(F)c1F [Example F42, N-[3-chloro-4-[4-(1,1-dimethylpiperidin-1-ium-4-carbonyl)piperazine-1-carbonyl]phenyl]-5-[2,3-difluoro-4-[3-methyl-1-(1H-pyrazol-4-yl)pyrazol-4-yl]phenyl]-1-methyl-imidazole-2-carboxamide; formate]	210

Further lines, results first:

IC90 [nM]	Compound
22	Cc1n[nH]cc1-c1ccc(-c2cnc(C(=O)Nc3ccc(C(=O)N4CCN(C(=O)C5CC[N+](C)(CC6CNC6)CC5)CC4)c(Cl)c3)n2C)c(F)c1F (stereo not shown) [Example J1, N-[4-[4-[1-(azetidin-3-ylmethyl)-1-methyl-piperidin-1-ium-4-carbonyl]piperazine-1-carbonyl]-3-chloro-phenyl]-5-[2,3-difluoro-4-(3-methyl-1H-pyrazol-4-yl)phenyl]-1-methyl-imidazole-2-carboxamide; formate]
540	Cc1nn(CCNC(=O)N2CCCC2)cc1-c1ccc(-c2cnc(C(=O)Nc3ccc(C(=O)N4CCN(C(=O)C5CC[N+](C)(C)CC5)CC4)c(Cl)c3)n2C)c(F)c1F [Example H8, N-[3-chloro-4-[4-(1,1-dimethylpiperidin-1-ium-4-carbonyl)piperazine-1-carbonyl]phenyl]-5-[2,3-difluoro-4-[3-methyl-1-[2-(pyrrolidine-1-carbonylamino)ethyl]pyrazol-4-yl]phenyl]-1-methyl-imidazole-2-carboxamide; formate]
160	Cc1c(-c2ccc(-c3cnc(C(=O)Nc4ccc(C(=O)N5CCN(C(=O)C6CC[N+](C)(C)CC6)CC5)c(Cl)c4)n3C)c(F)c2F)cnn1CCNC(=O)NC(C)(C)C [Example H4, 5-[4-[1-[2-(tert-butylcarbamoylamino)ethyl]-5-methyl-pyrazol-4-yl]-2,3-difluoro-phenyl]-N-[3-chloro-4-[4-(1,1-dimethylpiperidin-1-ium-4-carbonyl)piperazine-1-carbonyl]phenyl]-1-methyl-imidazole-2-carboxamide; formate]

Same assay, conditions: Acinetobacter baumannii, ATCC17961, 16 h, read-out: ATCC 17961 IC90

Compound	IC90 [nM]
COCCn1cc(-c2ccc(-c3cnc(C(=O)Nc4ccc(C(=O)N5CCN(C(=O)C6CC[N+](CC(=O)O)(CC7CNC7)CC6)CC5)c(Cl)c4)n3C)c(F)c2F)c(C)n1 (stereo not shown) [Example B18, 2-[1-(azetidin-3-ylmethyl)-4-[4-[2-chloro-4-[[5-[2,3-difluoro-4-[1-(2-methoxyethyl)-3-methyl-pyrazol-4-yl]phenyl]-1-methyl-imidazole-2-carbonyl]amino]benzoyl]piperazine-1-carbonyl]piperidin-1-ium-1-yl]acetic acid; formic acid; formate]	430
COCCn1cc(-c2ccc(-c3cnc(C(=O)Nc4ccc(C(=O)N5CCN(C(=O)[C@H]6CC[N@+](CC(=O)O)(CC7CNC7)CC6)CC5)c(C)c4)n3C)c(F)c2F)c(C)n1 [Example O8, cis 2-[1-(azetidin-3-ylmethyl)-4-[4-[4-[[5-[2,3-difluoro-4-[1-(2-methoxyethyl)-3-methylpyrazol-4-yl]phenyl]-1-methylimidazole-2-carbonyl]amino]-2-methylbenzoyl]piperazine-1-carbonyl]piperidin-1-ium-1-yl]acetic acid formate]	245
